Test results: paper PMC9030166, “Natural Phaeosphaeride A Derivatives Overcome Drug Resistance of Tumor Cells and Modulate Signaling Pathways” (Pharmaceuticals, 2022)

Tests used:
[1] = system: HCT-116; experiment: MTT cytotoxicity, HCT-116 colorectal cancer cells; assay type: cell-based, human; details: Homo sapiens, HCT-116, adhesive tumor culture, 48 h
Source text: (§1) Cell cultures used in the work: adhesive cultures HBL-100 cells (cells of a normal mammary gland epithelium, immortalized by the SV40 virus and acquired tumorigenicity); MCF-7 breast cancer cells; PC-3 prostate adenocarcinoma cells; HCT-116 colorectal cancer cells; non-small cell lung cancer cells A549; human embryonic kidney cells HEK293; suspension cultures (NCI-H929 and RPMI8226 multiple myeloma cells), K562 chronic myeloid leukemia cells; THP-1 acute monocytic leukemia cells; and Jurkat acute T-cell leukemia cells. We also used several primary cultures of soft tissue sarcomas at 3–4passeges, kindly provided by T.I. Fetisov (The Ethics Committee of N.N. Blokhin NMRCO, protocol code 18-28-09095 and date of approval 28 September 2018).
(§2) Modifications of cell lines: K562/i-S9 is a clone obtained after transfection of K562 cells with the ABCB1 (MDR1) gene-encoding P-glycoprotein [36]. Cells HBL-100/Dox and K562/i-S9_Dox are cells obtained by long-term selection with increasing concentrations of doxorubicin (Sigma-Aldrich, St. Louis, MO, USA) from HBL-100 and K562/i-S9 cells, respectively. MCF-7, A594 cells, and primary cultures of soft tissue sarcomas were cultured in DMEM medium (PanEko, Russia), PC-3 and HCT-116 cells and all suspension cultures in RPMI1640 medium (PanEko, Russia) supplemented with 10% fetal bovine serum (GE Healthcare LifeSciences, USA), and gentamicin at a concentration of 40 μg/mL at 37 °C and 5% CO2.
(§3) Cells MCF-7, PC-3, A549, and HCT-116, and primary cultures of STSwere seeded in 96-well plates, 6 × 10^3 cells per well in 90 μL of culture medium. Suspension cultures were seeded at a concentration of 25 × 10^3 cells per well in 135 μL of medium. The test substances were dissolved in DMSO (Applichem, Council Bluffs, IA, USA) until a concentration of 1 × 10^−^2 M was obtained; for the subsequent dilution of the substances, a serum-free culture medium was used. The next day, for adhesive cultures, and on the same day, for suspension cultures, substances were added to the plates in a volume of 10 μL (adhesive cultures) and 15 μL (suspension cultures) per well at various concentrations; each concentration was added in 3–4 repetitions. The cells were cultured in the presence of substances for 48 h. Then, MTT reagent (PanEko, Moscow, Russia) was added to the wells at a concentration of 5 mg/mL in a volume of 20 μL per well. After 1.5–2 h, the medium with the reagent was removed, and the precipitate of the crystals of formazan was dissolved in 60 μL of DMSO. The optical density was determined using a Multiskan FC spectrophotometer (Thermo Scientific, Waltham, MA, USA) at a wavelength of 540 nm.
(§4) Based on the results of the experiments, a schedule was plotted of the dependence of the percentage of surviving cells (from control) on the concentration of the compound, and the sought concentration IC50 was calculated. The experiments were carried out in 3–4 times.

[2] = system: MCF-7; experiment: MTT cytotoxicity, MCF-7 breast cancer cells; assay type: cell-based; details: Homo sapiens, MCF7, adhesive tumor culture, 48 h
Source text: as §1, §2, §3, §4

[3] = system: PC3; experiment: MTT cytotoxicity, PC-3 prostate adenocarcinoma cells; assay type: cell-based, human; details: Homo sapiens, PC-3, adhesive tumor culture, 48 h
Source text: as §1, §2, §3, §4

[4] = system: A549; experiment: MTT cytotoxicity, A549 non-small cell lung cancer cells; assay type: cell-based, human; details: Homo sapiens, A549, adhesive tumor culture, 48 h
Source text: as §1, §2, §3, §4

[5] = system: HEK293; experiment: MTT cytotoxicity, human embryonic kidney cells HEK293; assay type: cell-based; details: 48 h
Source text: as §1, §3, §4

[6] = system: NCI-H929; experiment: MTT cytotoxicity, NCI-H929 multiple myeloma cells; assay type: cell-based; details: Homo sapiens, suspension culture, 48 h
Source text: as §1, §2, §3, §4

[7] = system: THP-1; experiment: MTT cytotoxicity, THP-1 acute monocytic leukemia cells; assay type: cell-based; details: Homo sapiens, suspension culture, 48 h
Source text: as §1, §2, §3, §4

[8] = system: K562; experiment: MTT cytotoxicity, K562 chronic myeloid leukemia cells; assay type: cell-based; details: Homo sapiens
Source text: as §1, §2, §3, §4

[9] = system: RPMI8226; experiment: MTT cytotoxicity, RPMI8226 multiple myeloma cells; assay type: cell-based; details: Homo sapiens, RPMI-8226, suspension culture, 48 h
Source text: as §1, §2, §3, §4

[10] = system: Jurkat; experiment: MTT cytotoxicity, Jurkat acute T-cell leukemia cells; assay type: cell-based; details: Homo sapiens, suspension culture, 48 h
Source text: as §1, §2, §3, §4

[11] = system: CMT № 1 (Extraskeletal Ewing’s Sarcoma); experiment: MTT cytotoxicity, primary culture of soft tissue sarcoma CMT № 1; assay type: cell-based; details: Homo sapiens, 48 h
Source text: (§5) It is believed that such cultures have a molecular profile that corresponds more with cells from the human body, in comparison with that of stable cultures of tumor cells (Table 3).
as §1, §2
as §3, with “Then, MTT reagent (PanEko, Moscow, Russia) was added to the wells at a concentration of 5 mg/mL in a volume of 20 μL per well. After 1.5–2 h, the medium with the reagent was removed, and the precipitate of the crystals of formazan was dissolved in 60 μL of DMSO.” left out
(§6) Based on the results of the experiments, a schedule was plotted of the dependence of the percentage of surviving cells (from control) on the concentration of the compound, and the sought concentration IC50 was calculated. […]

[12] = system: CMT № 2 (Malignant Schwannoma); experiment: MTT cytotoxicity, primary culture of soft tissue sarcoma CMT № 2; assay type: cell-based; details: Homo sapiens, 48 h
Source text: as §5, §1, §2
as §3, with “Then, MTT reagent (PanEko, Moscow, Russia) was added to the wells at a concentration of 5 mg/mL in a volume of 20 μL per well. After 1.5–2 h, the medium with the reagent was removed, and the precipitate of the crystals of formazan was dissolved in 60 μL of DMSO.” left out
as §6

[13] = system: CMT № 3 (Epithelial Sarcoma (Metastasis)); experiment: MTT cytotoxicity, primary culture of soft tissue sarcoma CMT № 3; assay type: cell-based; details: Homo sapiens, 48 h
Source text: as §5, §1, §2
as §3, with “Then, MTT reagent (PanEko, Moscow, Russia) was added to the wells at a concentration of 5 mg/mL in a volume of 20 μL per well. After 1.5–2 h, the medium with the reagent was removed, and the precipitate of the crystals of formazan was dissolved in 60 μL of DMSO.” left out
as §6

[14] = system: K562/i-S9; experiment: MTT cytotoxicity, resistant K562/i-S9 cells (ABCB1 transfected); assay type: cell-based, human
Source text: (§7) At the next stage, the cytotoxic activity of compounds 1, 2, and 9 (Scheme 2) was investigated on several pairs of cell lines that differ in the expression of P-gp and the method by which they were obtained. K562/i-S9 cells are the result of the ABCB1 transfection into K562 cells, which increases P-gp expression, but should not seriously affect other signaling pathways that could lead to drug resistance. K562/i-S9_Dox cells were obtained from K562/i-S9 by selection with low concentrations of doxorubicin to increase P-gp expression. Subline HBL-100/Dox is a derivative of HBL-100 cells, obtained by long-term selection with increasing concentrations of doxorubicin, which led not only to an increase in P-gp expression, but also to a change in the signaling pathways in this subline. Cells of the K562/i-S9_Dox subline express the highest level of P-gp: 94.7% ± 2.3 (p < 0.0001 relative to K562, and p = 0.04 relative to K562/i-S9). In cells of the K562/i-S9 line, the expression of P-gp is 80% ± 8.2 (p < 0.0001 relative to K562). At 0.7% ± 0.5, P-gp is practically not expressed in K562 cells (Figure 1).
as §2, §3, §4

[15] = system: K562/i-S9_Dox; experiment: MTT cytotoxicity, resistant K562/i-S9_Dox cells (P-gp overexpression); assay type: cell-based, human
Source text: as §7, §2, §3, §4

[16] = system: HBL-100; experiment: MTT cytotoxicity, sensitive HBL-100 cells; assay type: cell-based; details: Homo sapiens, 48 h
Source text: as §1, §3, §4

[17] = system: HBL-100/Dox; experiment: MTT cytotoxicity, resistant HBL-100/Dox cells; assay type: cell-based, human; details: for IC50: Homo sapiens, HBL-100, resistant version, MTT, 48 h
Source text: At the next stage, the cytotoxic activity of compounds 1, 2, and 9 (Scheme 2) was investigated on several pairs of cell lines that differ in the expression of P-gp and the method by which they were obtained. […] K562/i-S9_Dox cells were obtained from K562/i-S9 by selection with low concentrations of doxorubicin to increase P-gp expression.
as §2, §3
The experiments were carried out in 3–4 times.

[18] = K562, suspension culture, 48 h (Table 2)

Structure (SMILES)	IC50 [1] [µM]	IC50 [2] [µM]	IC50 [3] [µM]	IC50 [4] [µM]	IC50 [5] [µM]	IC50 [6] [µM]	IC50 [7] [µM]	IC50 [8, 18] [µM]	IC50 [9] [µM]	IC50 [10] [µM]	IC50 [16] [µM]	IC50 [17] [µM]	also measured
C=C1C2=C(C(=O)N1OC)[C@@H](N(C)CCO)[C@@](C)(O)[C@H](CCCCC)O2 [Compound 8, (2S,3R,4R)-3-hydroxy-4-[(2-hydroxyethyl)(methyl)amino]-6-methoxy-3-methyl-7-methylene-2-pentyl-3,4,6,7-tetrahydropyrano[2,3-c]pyrrol-5(2H)-one]	7.5 ± 1	1.8 ± 0.4	3.3 ± 0.6	16.3 ± 0.9	3.8 ± 0.2	0.9 ± 0.3	1.8 ± 0.2	3.4 ± 0.3	1.5 ± 0.4	1 ± 0.3	–	–	IC50 [11]: 3.9 ± 0.8 µM; IC50 [12]: 2.3 ± 0.8 µM; IC50 [13]: 4.8 ± 0.5 µM
COc1cccc2c1C(=O)c1c(O)c3c(c(O)c1C2=O)C[C@@](O)(C(=O)CO)C[C@@H]3O[C@H]1C[C@H](N)[C@H](O)[C@H](C)O1 [Doxorubicin, doxorubicin, reference compound]	–	–	–	–	–	–	–	–	–	–	0.23 ± 0.03	128 ± 7.4	IC50 ([8]; sensitive K562 cells (Table 4), 48 h): 0.36 ± 0.17 µM; IC50 ([14]; Homo sapiens, K562i/S9, resistant version, ABCB1 transfected, MTT, 48 h): 3.9 ± 1.6 µM; resistance of K562/i-S9 cells relative to K562 ([14]; ratio of IC50 values, Table 4): 11 times; IC50 ([15]; Homo sapiens, K562, resistant version, doxorubicin selected, MTT, 48 h): 10.3 ± 1.2 µM; resistance of K562/i-S9_Dox cells relative to K562 ([15]; ratio of IC50 values, Table 4): 28 times; resistance of K562/i-S9_Dox relative to K562/i-S9 ([15]; ratio of IC50 values, Table 4): 2.6 times; resistance of HBL-100/Dox cells relative to HBL-100 ([17]; ratio of IC50 values, Table 5): 556 times
COc1cc([C@@H]2c3cc4c(cc3[C@@H](O[C@@H]3O[C@@H]5CO[C@@H](C)O[C@H]5[C@H](O)[C@H]3O)[C@H]3COC(=O)[C@H]23)OCO4)cc(OC)c1O [Etoposide, etoposide, reference compound]	21 ± 9.9	8.9 ± 2.3	27.1 ± 3.2	65.3 ± 5.2	2 ± 0.5	1.4 ± 0.5	1.8 ± 0.2	5.5 ± 3	7.2 ± 1.9	0.9 ± 0.3	4.7 ± 0.9	111 ± 8.3	–
